Reference: patent US12655106B2 (Eikonizo Therapeutics, Inc., priority 2021, dated 2026)

Assays:
Full length Human HDAC6 = molecular target: T1, Full length Human HDAC6 (Homo sapiens, UniProt Q9UBN7); assay: Caliper endpoint assay for HDAC enzymatic activity (HDAC6); assay type: biochemical; settings: for IC50: in vitro enzymatic, Caliper endpoint assay, 30 min pre-incubation, 1 μM substrate peptide; for Selectivity (6 v 8): ratio of HDAC8 IC50/HDAC6 IC50
T1 construct: Full length Human HDAC6; FLAG (C); host or cells: baculovirus expression system
T1 sequence (Q9UBN7 1-1215): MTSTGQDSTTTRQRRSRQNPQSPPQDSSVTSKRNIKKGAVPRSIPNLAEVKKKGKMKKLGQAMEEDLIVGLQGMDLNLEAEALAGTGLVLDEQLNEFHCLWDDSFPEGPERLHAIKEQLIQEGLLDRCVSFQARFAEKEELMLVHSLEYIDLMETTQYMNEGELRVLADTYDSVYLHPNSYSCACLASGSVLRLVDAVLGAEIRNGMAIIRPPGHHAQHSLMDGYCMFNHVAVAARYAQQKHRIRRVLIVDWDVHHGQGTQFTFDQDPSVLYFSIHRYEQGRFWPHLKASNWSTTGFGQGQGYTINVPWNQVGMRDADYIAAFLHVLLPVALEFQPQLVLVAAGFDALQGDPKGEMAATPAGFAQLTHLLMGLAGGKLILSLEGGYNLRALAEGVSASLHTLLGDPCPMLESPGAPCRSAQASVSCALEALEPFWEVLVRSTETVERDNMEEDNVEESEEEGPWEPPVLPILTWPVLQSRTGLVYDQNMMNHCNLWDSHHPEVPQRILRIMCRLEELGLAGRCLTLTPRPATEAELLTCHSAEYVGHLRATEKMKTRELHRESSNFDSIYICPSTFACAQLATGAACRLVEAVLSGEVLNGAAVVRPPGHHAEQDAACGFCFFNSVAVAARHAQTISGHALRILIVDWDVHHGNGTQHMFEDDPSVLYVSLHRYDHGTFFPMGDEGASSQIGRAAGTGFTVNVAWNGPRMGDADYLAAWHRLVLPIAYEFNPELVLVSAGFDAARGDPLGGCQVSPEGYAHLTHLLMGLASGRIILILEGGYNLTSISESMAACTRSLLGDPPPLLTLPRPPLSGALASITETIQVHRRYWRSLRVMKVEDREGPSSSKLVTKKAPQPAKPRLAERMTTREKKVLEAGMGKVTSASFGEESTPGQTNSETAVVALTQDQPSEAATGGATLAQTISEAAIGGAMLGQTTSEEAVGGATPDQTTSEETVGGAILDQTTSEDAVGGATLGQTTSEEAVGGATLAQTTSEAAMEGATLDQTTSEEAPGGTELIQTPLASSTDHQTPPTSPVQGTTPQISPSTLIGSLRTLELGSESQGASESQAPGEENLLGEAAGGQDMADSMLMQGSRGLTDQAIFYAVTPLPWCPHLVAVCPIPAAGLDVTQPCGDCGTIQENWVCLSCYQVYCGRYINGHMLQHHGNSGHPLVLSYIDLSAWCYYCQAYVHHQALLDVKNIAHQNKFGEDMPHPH

Full length Human HDAC8 = molecular target: T2, Full length Human HDAC8 (Homo sapiens, UniProt Q9BY41); assay: Caliper endpoint assay for HDAC enzymatic activity (HDAC8); assay type: biochemical; settings: in vitro enzymatic, 30 min pre-incubation, 1 μM substrate peptide
T2 construct: Full length Human HDAC8; HIS (N); host or cells: baculovirus expression system
T2 sequence (Q9BY41 1-377): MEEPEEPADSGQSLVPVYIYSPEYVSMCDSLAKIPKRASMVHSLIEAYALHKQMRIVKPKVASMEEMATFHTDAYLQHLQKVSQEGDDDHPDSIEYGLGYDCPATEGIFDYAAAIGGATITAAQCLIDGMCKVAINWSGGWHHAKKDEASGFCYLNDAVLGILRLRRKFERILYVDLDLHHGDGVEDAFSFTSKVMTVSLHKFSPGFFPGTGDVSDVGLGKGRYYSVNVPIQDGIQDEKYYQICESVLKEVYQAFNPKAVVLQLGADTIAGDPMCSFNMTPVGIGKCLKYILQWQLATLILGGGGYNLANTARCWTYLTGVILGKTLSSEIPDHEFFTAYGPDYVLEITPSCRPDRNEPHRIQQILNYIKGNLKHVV

SMILES | IC50 (Full length Human HDAC6) [nM] | Selectivity (6 v 8) (Full length Human HDAC6) | IC50 (Full length Human HDAC8) [nM]
CC[C@@H]1Cc2c(F)cc(C(=O)NO)cc2CN1C1CC2(CCN(C3CC3)CC2)C1 (single isomer, unassigned) [Compound 598] | 100 to 1000 | IV (IV: >100-1000) | 10000 to 100000
CC[C@@H]1Cc2c(F)cc(C(=O)NO)cc2CN1CC12CC(NC)(C1)C2 (single isomer, unassigned) [Compound 524] | 1 to 100 | III (III: >10-100) | 1000 to 10000
O=C(NO)c1cc(F)c2c(c1)CCN(CC1C3CNCC1C3)C2 (centres unmarked) [Compound 493] | 1 to 100 | IV (IV: >100-1000) | 10000 to 100000
CC(=O)N1CC[C@H](N2CCc3cc(C(=O)NO)cc(F)c3C2)CC12CCC2 (single isomer, unassigned) [Compound 441] | 1 to 100 | IV (IV: >100-1000) | 1000 to 10000
CN1CC[C@@]2(CC[C@@H]2N2CCc3cc(C(=O)NO)cc(F)c3C2)C1 (single isomer, unassigned) [Compound 329] | 1 to 100 | III (III: >10-100) | 1000 to 10000
CC[C@@H]1Cc2c(F)cc(C(=O)NO)cc2CN1C1CC2(CCCCC2)C1 (single isomer, unassigned) [Compound 232] | 100 to 1000 | IV (IV: >100-1000) | 10000 to 100000
O=C(NO)c1cc(F)c2c(c1)CCN([C@H]1CCCC3(CCC3)C1)C2 (single isomer, unassigned) [Compound 195] | 1 to 100 | IV (IV: >100-1000) | 10000 to 100000
O=C(NO)c1cc(F)c2c(c1)CCN(C1CCC13CCN(C1CC1)CC3)C2 (centres unmarked) [Compound 359, 2-(7-cyclopropyl-7-azaspiro[3.5]nonan-3-yl)-8-fluoro-3,4-dihydro-1H-isoquinoline-6-carbohydroxamic acid] | 100 to 1000 | III (III: >10-100) | 1000 to 10000
CN1CCC[C@]2(C1)C[C@@H](N1CCc3cc(C(=O)NO)cc(F)c3C1)C2 (single isomer, unassigned) [Compound 343, 8-fluoro-N-hydroxy-2-((2r,4s)-6-methyl-6-azaspiro[3.5]nonan-2-yl)-1,2,3,4-tetrahydroisoquinoline-6-carboxamide] | 1 to 100 | IV (IV: >100-1000) | 10000 to 100000
O=C(NO)c1cc(F)c2c(c1)CCN(C1CCC13CCCC3)C2 (centres unmarked) [Compound 314, 8-fluoro-2-spiro[3.4]octan-3-yl-3,4-dihydro-1H-isoquinoline-6-carbohydroxamic acid] | 1 to 100 | IV (IV: >100-1000) | 1000 to 10000
CN1[C@@H]2CC[C@H]1CC(CN1CCc3cc(C(=O)NO)cc(F)c3C1)C2 (single isomer, unassigned) [Compound 483] | 1 to 100 | IV (IV: >100-1000) | 1000 to 10000
CN1CC[C@@]2(CC[C@H]2N2CCc3cc(C(=O)NO)cc(F)c3C2)C1 (single isomer, unassigned) [Compound 331] | 1 to 100 | IV (IV: >100-1000) | 10000 to 100000
O=C(NO)c1cc(F)c2c(c1)CCN(CC13CCC(CC1)C(=O)N3)C2 [Compound 461, 8-fluoro-2-[(3-oxo-2-azabicyclo[2.2.2]octan-1-yl)methyl]-3,4-dihydro-1H-isoquinoline-6-carbohydroxamic acid] | 1 to 100 | V (V: >1000) | 1000 to 10000
O=C(NO)c1cc(F)c2c(c1)CCN(CC1CC3CCC(C1)N3C1CC1)C2 (centres unmarked) [Compound 484, 2-[(8-cyclopropyl-8-azabicyclo[3.2.1]octan-3-yl)methyl]-8-fluoro-3,4-dihydro-1H-isoquinoline-6-carbohydroxamic acid] | 1 to 100 | IV (IV: >100-1000) | 1000 to 10000
CC1(C)C[C@@H]2Cc3cc(C(=O)NO)cc(F)c3CN2C1 [Compound 126] | 100 to 1000 | III (III: >10-100) | 1000 to 10000
O=C(NO)c1cc(F)c2c(c1)CCN([C@H]1CC[C@@]13CCOC3)C2 (single isomer, unassigned) [Compound 315] | 1 to 100 | IV (IV: >100-1000) | 10000 to 100000
CN1Cc2cc(C(=O)NO)ccc2[C@H]2CCCN21 (single isomer, unassigned) [Compound 161] | 100 to 1000 | – | 1000 to 10000
CC[C@@H]1Cc2c(F)cc(C(=O)NO)cc2CN1CC12CC(C1)N(C)C2 (single isomer, unassigned) [Compound 534] | 100 to 1000 | IV (IV: >100-1000) | 10000 to 100000
CN1CCC[C@]2(CC[C@H]2N2CCc3cc(C(=O)NO)cc(F)c3C2)C1 (single isomer, unassigned) [Compound 363] | 1 to 100 | IV (IV: >100-1000) | 10000 to 100000
CC[C@@H]1N(Cc2ccc(C(=O)NO)cc2F)CC12CCCC2 (single isomer, unassigned) [Compound 168] | 100 to 1000 | – | 1000 to 10000
CN1[C@@H]2CC[C@H]1CC(CN1CCc3cc(C(=O)NO)cc(F)c3C1)C2 (single isomer, unassigned) [Compound 482] | 1 to 100 | IV (IV: >100-1000) | 1000 to 10000
C[C@@H]1CC[C@H]2c3c(F)cc(C(=O)NO)cc3CCN12 (single isomer, unassigned) [Compound 158] | 1 to 100 | – | 1000 to 10000
O=C(NO)c1cc(F)c2c(c1)C[C@H]1CC3(CCCCC3)CN1C2 (single isomer, unassigned) [Compound 135] | 100 to 1000 | – | 1000 to 10000
CN1CC2(CCC(N3CCc4cc(C(=O)NO)cc(F)c4C3)CC2)C1 [Compound 427, 8-fluoro-2-(2-methyl-2-azaspiro[3.5]nonan-7-yl)-3,4-dihydro-1H-isoquinoline-6-carbohydroxamic acid] | 1 to 100 | V (V: >1000) | 10000 to 100000
O=C(NO)c1cc(F)c2c(c1)CCN(CC1C3CC1CN(C1CC1)C3)C2 (centres unmarked) [Compound 494, 2-[(3-cyclopropyl-3-azabicyclo[3.1.1]heptan-6-yl)methyl]-8-fluoro-3,4-dihydro-1H-isoquinoline-6-carbohydroxamic acid] | 1 to 100 | III (III: >10-100) | 1000 to 10000
CC(=O)N1CCC2(CCC(N3CCc4cc(C(=O)NO)cc(F)c4C3)C2)CC1 (centres unmarked) [Compound 419, 2-(8-acetyl-8-azaspiro[4.5]decan-3-yl)-8-fluoro-3,4-dihydro-1H-isoquinoline-6-carbohydroxamic acid] | 1 to 100 | IV (IV: >100-1000) | 10000 to 100000
O=C(NO)c1cc(F)c2c(c1)CCN(C1CCC3(CCC3)CC1)C2 [Compound 192, 8-fluoro-2-spiro[3.5]nonan-7-yl-3,4-dihydro-1H-isoquinoline-6-carbohydroxamic acid] | 1 to 100 | V (V: >1000) | 10000 to 100000
O=C(NO)c1ccc2c(c1)C[C@H]1COCCN1C2 [Compound 132] | 1 to 100 | IV (IV: >100-1000) | 1000 to 10000
NC12CC(CN3CCc4cc(C(=O)NO)cc(F)c4C3)(C1)C2 [Compound 486, 2-[(3-amino-1-bicyclo[1.1.1]pentanyl)methyl]-8-fluoro-3,4-dihydro-1H-isoquinoline-6-carbohydroxamic acid] | 1 to 100 | IV (IV: >100-1000) | 10000 to 100000
